Experimental data: patent US5218096A, “Lactoneotrehalose, and its preparation and uses” (Kabushiki Kaisha Hayashibara Seibutsu Kagaku Kenkyujo, priority 1990, dated 1993)
Values after ≈ are worked out from the molar mass of the structure shown. Like-named read-outs stand apart in the source and are kept apart here.

Experiments:
[1] = test system: Bifidobacterium infantis JCM 1222; assay: Assimilation by intestinal microorganism; assay type: cell-based; settings: 0.5 w/v % saccharide, PYF broth, 37° C., 96 hours
Experimental: (§1) The resultant broth was diluted 5-fold, and the turbidity of the diluted solution was determined at 750 nm in 1-cm cell cuvette. The growth of the intestinal microorganisms and the assimilability of lactoneotrehalose were both evaluated with the turbidity. As control, glucose and lactose were used in place of lactoneotrehalose.

[2] = test system: Streptococcus faecalis IAM 10065; assay: Assimilation by intestinal microorganism; assay type: cell-based; settings: 0.5 w/v % saccharide, PYF broth, 37° C., 96 hours
Experimental: as §1

[3] = test system: Peptostreptococcus prevotii ATCC 9321; assay: Assimilation by intestinal microorganism; assay type: cell-based; settings: 0.5 w/v % saccharide, PYF broth, 37° C., 96 hours
Experimental: as §1

[4] = test system: Escherichia coli IFO 3301; assay: Assimilation by intestinal microorganism; assay type: cell-based; settings: 0.5 w/v % saccharide, PYF broth, 37° C., 96 hours
Experimental: as §1

[5] = test system: Bifidobacterium animalis JCM 1190; assay: Assimilation by intestinal microorganism; assay type: cell-based; settings: 0.5 w/v % saccharide, PYF broth, 37° C., 96 hours
Experimental: as §1

[6] = test system: Eubacterium aerofaciens ATCC 25986; assay: Assimilation by intestinal microorganism; assay type: cell-based; settings: 0.5 w/v % saccharide, PYF broth, 37° C., 96 hours
Experimental: as §1

[7] = test system: Lactobacillus acidophilus JCM 1132; assay: Assimilation by intestinal microorganism; assay type: cell-based; settings: 0.5 w/v % saccharide, PYF broth, 37° C., 96 hours
Experimental: as §1

[8] = test system: Bifidobacterium breve JCM 1192; assay: Assimilation by intestinal microorganism; assay type: cell-based; settings: 0.5 w/v % saccharide, PYF broth, 37° C., 96 hours
Experimental: as §1

[9] = test system: Bacteroides distasonis JCM 5825; assay: Assimilation by intestinal microorganism; assay type: cell-based; settings: 0.5 w/v % saccharide, PYF broth, 37° C., 96 hours
Experimental: as §1

[10] = test system: Eubacterium limosum JCM 6421; assay: Assimilation by intestinal microorganism; assay type: cell-based; settings: 0.5 w/v % saccharide, PYF broth, 37° C., 96 hours
Experimental: as §1

[11] = test system: Bifidobacterium longum JCM 1217; assay: Assimilation by intestinal microorganism; assay type: cell-based; settings: 0.5 w/v % saccharide, PYF broth, 37° C., 96 hours
Experimental: as §1

[12] = test system: Bifidobacterium adolescentis JCM 1275; assay: Assimilation by intestinal microorganism; assay type: cell-based; settings: 0.5 w/v % saccharide, PYF broth, 37° C., 96 hours
Experimental: as §1

[13] = test system: Lactobacillus plantarum IFO 3070; assay: Assimilation by intestinal microorganism; assay type: cell-based; settings: 0.5 w/v % saccharide, PYF broth, 37° C., 96 hours
Experimental: as §1

[14] = test system: Clostridium sporogenes JCM 1416; assay: Assimilation by intestinal microorganism; assay type: cell-based; settings: 0.5 w/v % saccharide, PYF broth, 37° C., 96 hours
Experimental: as §1

[15] = Acidity of aqueous solution; assay type: physicochemical
[16] = Digestion test in vitro, hydrolysis rate; assay type: in vitro ADME; settings: amylopsin, read-out: hydrolysis rate (the ratio of reducing sugars against total sugars)
Experimental: (§2) In accordance with the method reported in Okada et al., Journal of Japanese Society of Nutrition and Food Science, Vol.43, No.1, pp.23-29 (1990), a crystalline lactoneotrehalose specimen prepared by the method in Experiment 1 was tested for its digestibility in vitro, and the digestibility was evaluated based on the hydrolysis rate (the ratio of reducing sugars against total sugars).

Solubility = assay type: physicochemical
[17] = Digestion test in vitro, hydrolysis rate; assay type: in vitro ADME; settings: salivary amylase, read-out: hydrolysis rate (the ratio of reducing sugars against total sugars)
Experimental: as §2

[18] = test system: microorganisms of the genus Bifidobacterium; assay: Assimilation by intestinal microorganism, overall finding; assay type: cell-based; settings: conclusion from Table 3
Experimental: as §1

mice = assay: Acute toxicity test, oral
Source text: A crystalline lactoneotrehalose specimen, prepared by the method in Experiment 1, was orally administered to 7 week-old dd mice for acute toxicity test.

[19] = Hygroscopicity, deliquescence and moisture content; assay type: physicochemical
Source text: (9) Physical properties and color Colorless and transparent crystal having a true specific gravity of 1.59.

[20] = test system: Enzyme of small intestinal mucous membrane; assay: Digestion test in vitro, hydrolysis rate; assay type: in vitro ADME; settings: conclusion from Table 1
Experimental: as §2

[21] = Digestion test in vitro, hydrolysis rate; assay type: in vitro ADME; settings: small intestinal mucosa enzyme; in vitro, enzyme of small intestinal mucous membrane; read-out: hydrolysis rate (the ratio of reducing sugars against total sugars)
Experimental: as §2

Coloring reaction = assay type: physicochemical
[22] = Digestion test in vitro, hydrolysis rate; assay type: in vitro ADME; settings: gastric juice, read-out: hydrolysis rate (the ratio of reducing sugars against total sugars)
Experimental: as §2

Heat of dissolution = assay type: physicochemical

## O=C[C@H](O)[C@@H](O)[C@H](O)[C@H](O)CO [Glucose, glucose]
[1]
  Judgement of turbidity (A750 × 5): ++ (0.2 or higher but less than 0.3)
[2]
  Judgement of turbidity (A750 × 5): ++ (0.2 or higher but less than 0.3)
[3]
  Judgement of turbidity (A750 × 5): - (less than 0.1)
[4]
  Judgement of turbidity (A750 × 5): ++ (0.2 or higher but less than 0.3)
[5]
  Judgement of turbidity (A750 × 5): ++ (0.2 or higher but less than 0.3)
[6]
  Judgement of turbidity (A750 × 5): +++ (0.3 or higher)
[7]
  Judgement of turbidity (A750 × 5): + (0.15 or higher but less than 0.2)
[8]
  Judgement of turbidity (A750 × 5): ++ (0.2 or higher but less than 0.3)
[9]
  Judgement of turbidity (A750 × 5): ± (0.1 or higher but less than 0.15)
[10]
  Judgement of turbidity (A750 × 5): ± (0.1 or higher but less than 0.15)
[11]
  Judgement of turbidity (A750 × 5): ++ (0.2 or higher but less than 0.3)
[12]
  Judgement of turbidity (A750 × 5): ++ (0.2 or higher but less than 0.3)
[13]
  Judgement of turbidity (A750 × 5): + (0.15 or higher but less than 0.2)

## OC[C@H]1O[C@@H](O[C@H]2[C@H](O)[C@@H](O)C(O)O[C@@H]2CO)[C@H](O)[C@@H](O)[C@H]1O (stereo partly drawn) [Lactose, O-β-D-galactopyranosyl-(1→4)-D-glucose]
[14]
  Judgement of turbidity (A750 × 5): - (less than 0.1)
[1]
  Judgement of turbidity (A750 × 5): ++ (0.2 or higher but less than 0.3)
[2]
  Judgement of turbidity (A750 × 5): + (0.15 or higher but less than 0.2)
[3]
  Judgement of turbidity (A750 × 5): - (less than 0.1)
[4]
  Judgement of turbidity (A750 × 5): ± (0.1 or higher but less than 0.15)
[5]
  Judgement of turbidity (A750 × 5): ++ (0.2 or higher but less than 0.3)
[6]
  Judgement of turbidity (A750 × 5): ++ (0.2 or higher but less than 0.3)
[7]
  Judgement of turbidity (A750 × 5): + (0.15 or higher but less than 0.2)
[8]
  Judgement of turbidity (A750 × 5): +++ (0.3 or higher)
[9]
  Judgement of turbidity (A750 × 5): ± (0.1 or higher but less than 0.15)
[10]
  Judgement of turbidity (A750 × 5): - (less than 0.1)
[11]
  Judgement of turbidity (A750 × 5): ++ (0.2 or higher but less than 0.3)
[12]
  Judgement of turbidity (A750 × 5): ++ (0.2 or higher but less than 0.3)
[13]
  Judgement of turbidity (A750 × 5): + (0.15 or higher but less than 0.2)

## OC[C@H]1O[C@@H](O[C@H]2[C@H](O)[C@@H](O)[C@H](O[C@H]3O[C@H](CO)[C@@H](O)[C@H](O)[C@H]3O)O[C@@H]2CO)[C@H](O)[C@@H](O)[C@H]1O [lactoneotrehalose, O-β-D-galactopyranosyl-(1→4)-O-β-D-glucopyranosyl α-D-glucopyranoside]
[15]
  acidity of aqueous solution of the crystal: neutral or slight acidity
[16]
  metabolised: 0%
Solubility; 0.1N hydrochloric acid
  Solubility in solvents: Readily soluble
Solubility; 0.1N sodium hydroxide
  Solubility in solvents: Readily soluble
Solubility; chloroform
  Solubility in solvents: insoluble
Solubility; ethanol
  Solubility in solvents: scarcely soluble
Solubility; ethyl acetate
  Solubility in solvents: insoluble
Solubility; methanol
  Solubility in solvents: scarcely soluble
Solubility; water
  Solubility in solvents: Readily soluble
Solubility; water, 25° C.
  solubility: 217 mg/mL (≈ 430 mM)
[17]
  metabolised: 0%
[18]
  selective utilization by genus Bifidobacterium: selectively utilized at a relatively high-level by microorganisms of the genus Bifidobacterium
mice; 7 week-old dd mice, up to 5 g
  mortality: no mouse died
mice; dd mice, conclusion
  toxicity: extremely low in toxicity
[19]
  hygroscopicity and deliquescence: Free of hygroscopicity and deliquescence
[19]; Karl Fischer's method, predried in vacuo at 60° C. for 16 hours
  moisture content of crystals: less than 3.0%
[20]
  main site of hydrolysis: mainly hydrolyzed by the enzyme from intestinal mucous membrane
[21]
  metabolised: 60.2%
[14]
  Judgement of turbidity (A750 × 5): - (less than 0.1)
[1]
  Judgement of turbidity (A750 × 5): ++ (0.2 or higher but less than 0.3)
[2]
  Judgement of turbidity (A750 × 5): - (less than 0.1)
[3]
  Judgement of turbidity (A750 × 5): - (less than 0.1)
[4]
  Judgement of turbidity (A750 × 5): - (less than 0.1)
[5]
  Judgement of turbidity (A750 × 5): ++ (0.2 or higher but less than 0.3)
[6]
  Judgement of turbidity (A750 × 5): - (less than 0.1)
[7]
  Judgement of turbidity (A750 × 5): ± (0.1 or higher but less than 0.15)
[8]
  Judgement of turbidity (A750 × 5): ++ (0.2 or higher but less than 0.3)
[9]
  Judgement of turbidity (A750 × 5): - (less than 0.1)
[10]
  Judgement of turbidity (A750 × 5): - (less than 0.1)
[11]
  Judgement of turbidity (A750 × 5): ++ (0.2 or higher but less than 0.3)
[12]
  Judgement of turbidity (A750 × 5): ++ (0.2 or higher but less than 0.3)
[13]
  Judgement of turbidity (A750 × 5): - (less than 0.1)
Coloring reaction
  Fehling's reaction: Negative
  iodine coloration reaction: Negative
[22]
  metabolised: 0%
Heat of dissolution
  Heat of dissolution: 20.0 cal/g
